Test results taken from patent US9120779B2, “Inhibitors of HCV NS5A” (PRESIDIO PHARMACEUTICALS, INC., priority 2008, dated 2015).
Read-outs that look alike come from different tables or passages of the source.

System: HCV genotype 1b replicon in Huh 7 cells
Assay: HCV replicon assay (luciferase readout, 1b_Huh-Luc/Neo-ET cell line)
Assay type: cell-based
Settings: Hepatitis C virus, Huh-7, 72 h
Summary of the method: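 Huh 7 cells carrying a bicistronic genotype 1b luciferase replicon treated with compound in triplicate for 72 h. Replicon level read as luciferase activity (Bright-Glo), expressed as % of control; EC50 from a sigmoidal Hill-slope fit, repeated several times.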

[1] = read-out: Inhibition of HCV genotype 1b, Table 3, 72 h incubation
[2] = read-out: Inhibition of HCV genotype 1b, Table 4, 72 h incubation
[3] = read-out: Inhibition of HCV genotype 1b, Table 5, 72 h incubation
[4] = read-out: Inhibition of HCV genotype 1b, Table 1, 72 h incubation

With `COC(=O)N[C@@H](C(=O)N1CCC[C@H]1c1ncc(-c2cc(F)c(N3CCC(c4cnc([C@@H]5CCCCN5C(=O)[C@H](NC(=O)OC)C(C)C)[nH]4)CC3)c(F)c2)[nH]1)C(C)C` [compound 504] the EC50 [1] was greater than 1000 nM.

Work on `COC(=O)N[C@H](C(=O)N1CCC[C@H]1c1nc2ccc(-c3ccc(-c4ccc5nc([C@@H]6CCCN6C(=O)[C@@H](NC(=O)OC)C6CCOCC6)[nH]c5c4)cc3)cc2[nH]1)C(C)C` [compound 2040] yielded an EC50 [2] of less than 1 nM.

`COC(=O)N[C@@H](C(=O)N1CCC[C@H]1c1ncc(-c2cc(F)c(N3CCC(c4cnc([C@@H]5CCCN5C(=O)[C@H](NC(=O)N5CCCCC5)c5ccccc5)[nH]4)CC3)c(F)c2)[nH]1)c1ccccc1` [compound 488] gave an EC50 [1] of less than 1 nM.

`COC(=O)N[C@H](C(=O)N1CCC[C@H]1c1ncc(-c2ccc(C34CCC(c5cnc([C@@H]6CCCN6C(=O)[C@@H](NC(=O)OC)C(C)(C)C)[nH]5)(CC3)CC4)cc2)[nH]1)C(C)(C)C` [compound 2093] gave an EC50 [3] of less than 1 nM.

In the case of `O=C(N[C@@H](C(=O)N1CCC[C@H]1c1ncc(-c2ccc(C3CCC(c4cnc([C@@H]5CCCN5C(=O)[C@H](NC(=O)C5CC5)c5ccccc5)o4)CC3)cc2)[nH]1)c1ccccc1)C1CC1` (stereo partly drawn) [compound 353], the EC50 [4] is reported as less than 1 nM.

Work on `O=C(NC1CCN(c2ccc(-c3cnc([C@@H]4CCCN4C(=O)[C@H](NC(=O)N4CCOCC4)c4ccccc4)[nH]3)cc2F)CC1)[C@@H]1CCCN1C(=O)[C@H](NC(=O)N1CCOCC1)c1ccccc1` [compound 455] yielded an EC50 [1] of 1 to 9.9 nM.

Molecule `COC(=O)N[C@@H](C(=O)N1CCC[C@H]1c1ncc(-c2ccc(C34CCC(c5cnc([C@@H]6CCCN6C(=O)[C@@H](NC(=O)N6CCOCC6)C(C)C)[nH]5)(CC3)CC4)cc2)[nH]1)c1ccccc1` [compound 2052] has an EC50 [3] of less than 1 nM.

For `COC(=O)N[C@H](C(=O)N[C@@H](C)c1ncc(C2CCN(c3c(F)cc(-c4cnc([C@@H]5CCCN5C(=O)[C@@H](NC(=O)OC)C(C)C)[nH]4)cc3F)CC2)[nH]1)C(C)C` [compound 512], the EC50 [1] was less than 1 nM.

In the case of `COC(=O)N[C@H](C(=O)N1CCC[C@H]1c1ncc(-c2ccc(C34CCC(c5cnc([C@@H]6CCCN6C(=O)[C@H](C(C)C)N(C)C)[nH]5)(CC3)CC4)cc2)[nH]1)C(C)C` [compound 2056], the EC50 [3] is reported as less than 1 nM.

Work on `COC(=O)N[C@H](C(=O)N1CCC[C@H]1c1ncc(C23CCC(c4ccc5c(c4)nc([C@@H]4CCCN4C(=O)[C@@H](NC(=O)OC)C(C)C)n5C)(CC2)CC3)[nH]1)C(C)C` [compound 2116] yielded an EC50 (read-out: Inhibition of HCV genotype 1b, Table 8, 72 h incubation) of 10 to 999 nM.

Work on `O=C(N[C@@H](C(=O)N1CCC[C@H]1C(=O)N[C@H]1CC[C@@H](c2ccc(-c3cnc([C@@H]4CCCN4C(=O)[C@H](NC(=O)C4CC4)c4ccccc4)[nH]3)cc2)CC1)c1ccccc1)C1CC1` [compound 351] yielded an EC50 [4] of less than 1 nM.

For `COC(=O)N[C@@H](C(=O)N1CCC[C@H]1c1ncc(-c2ccc([C@H]3CC[C@H](NC(=O)[C@@H]4CCCN4C(=O)[C@H](NC(=O)N4CCOCC4)c4ccccc4)CC3)cc2)[nH]1)c1ccccc1` [compound 369], the EC50 [4] was 1 to 9.9 nM.

Molecule `COC(=O)N[C@@H](C)C(=O)N1CCC[C@H]1c1ncc(-c2ccc([C@H]3CC[C@H](c4cnc([C@@H]5CCCN5C(=O)[C@H](C)NC(=O)OC)[nH]4)CC3)cc2)[nH]1` [compound 387] has an EC50 [4] of less than 1 nM.

`COC(=O)N[C@H](C(=O)N1CCC[C@H]1c1ncc(C23CCC(c4ccc(-c5cnc([C@@H]6CCCN6C(=O)[C@@H](NC(=O)C6CCN(C)CC6)C(C)C)[nH]5)cc4)(CC2)CC3)[nH]1)C(C)C` [compound 647] showed an EC50 [3] of 10 to 999 nM.

Work on `COC(=O)N[C@H](C(=O)N[C@@H](C)c1ncc(-c2cc(F)c(N3CCC(c4cnc([C@@H]5CCCN5C(=O)[C@@H](NC(=O)OC)C(C)C)[nH]4)CC3)c(F)c2)[nH]1)C(C)C` [compound 519] yielded an EC50 [1] of less than 1 nM.

In the case of `O=C(N[C@H]1CC[C@H](c2ccc(-c3cnc([C@@H]4CCCN4C(=O)[C@H](NC(=O)N4CCOCC4)c4ccccc4)[nH]3)cc2)CC1)[C@@H]1CCCN1C(=O)[C@H](NC(=O)N1CCOCC1)c1ccccc1` [compound 354], the EC50 [4] is reported as 1 to 9.9 nM.

Molecule `COC(=O)N[C@@H](C(=O)N1CCC[C@H]1c1ncc(C2CCC(c3ccc(-c4cnc([C@@H]5CCCN5C(=O)[C@@H](c5ccccc5)N5CCCC5)[nH]4)cc3)CC2)[nH]1)c1ccccc1` (stereo partly drawn) [compound 379] has an EC50 [4] of less than 1 nM.

In the case of `COC(=O)N[C@H](C(=O)N1CCC[C@H]1c1ncc([C@H]2CC[C@H](c3ccc(-c4cnc([C@@H]5CCCN5C(=O)[C@H](NC(=O)OC)c5ccccc5)[nH]4)cc3)CC2)[nH]1)C(C)C` [compound 2002], the EC50 [4] is reported as less than 1 nM.

In the case of `CC(C)(C)OC(=O)N[C@@H](C(=O)N1CCC[C@H]1C(=O)NC1CCC(c2ccc(-c3cnc([C@@H]4COCCN4C(=O)[C@H](NC(=O)OC(C)(C)C)c4ccccc4)[nH]3)cc2)CC1)c1ccccc1` (stereo partly drawn) [compound 368], the EC50 [4] is reported as less than 1 nM.

For `O=C(N[C@@H](C(=O)N1CCC[C@H]1c1ncc(-c2cc(F)c(N3CCC(c4cnc([C@@H]5CCCCN5C(=O)[C@H](NC(=O)C5CC5)c5ccccc5)[nH]4)CC3)c(F)c2)[nH]1)c1ccccc1)C1CC1` [compound 484], the EC50 [1] was less than 1 nM.

`CN(C)C(=O)N[C@@H](C(=O)N1CCC[C@H]1C(=O)NC1CCN(c2ccc(-c3cnc([C@@H]4CCCN4C(=O)[C@H](NC(=O)N(C)C)c4ccccc4)[nH]3)cc2F)CC1)c1ccccc1` [compound 457] showed an EC50 [1] of less than 1 nM.

`COC(=O)N[C@H](C(=O)N1CCC[C@H]1c1ncc(C23CCC(c4ccc(-c5cnc([C@@H]6CCCN6C(=O)[C@@H](NC(=O)N6CC[C@H](O)C6)C(C)C)[nH]5)cc4)(CC2)CC3)[nH]1)C(C)C` [compound 651] showed an EC50 [3] of 1 to 9.9 nM.

`CC(C)[C@@H](NC(=O)OC(C)(C)C)C(=O)N1CCC[C@H]1C(=O)N[C@H]1CC[C@@H](c2ccc(-c3cnc([C@@H]4CCCN4C(=O)[C@H](NC(=O)OC(C)(C)C)C(C)C)[nH]3)cc2)CC1` [compound 357] was tested, and the EC50 [4] was 10 to 999 nM.

In the case of `CN(C)[C@@H](C(=O)N1CCC[C@H]1c1ncc(C2CCC(c3ccc(-c4cnc([C@@H]5CCCN5C(=O)[C@H](NC(=O)C5CC5)c5ccccc5)[nH]4)cc3)CC2)[nH]1)c1ccccc1` (stereo partly drawn) [compound 380], the EC50 [4] is reported as less than 1 nM.

`COC(=O)N[C@H](C(=O)N1CCOC[C@H]1c1ncc(-c2ccc(C34CCC(c5cnc([C@@H]6CCCN6C(=O)[C@@H](NC(=O)OC)C(C)C)[nH]5)(CC3)CC4)cc2)[nH]1)C(C)C` [compound 2087] gave an EC50 [3] of less than 1 nM.

Molecule `CC(C)[C@H](NC(=O)N1CCC(C)(O)CC1)C(=O)N1CCC[C@H]1c1ncc(-c2ccc(C34CCC(c5cnc([C@@H]6CCCN6C(=O)[C@@H](NC(=O)N6CCC(C)(O)CC6)C(C)C)[nH]5)(CC3)CC4)cc2)[nH]1` [compound 634] has an EC50 [3] of less than 1 nM.

`CC(C)(C)OC(=O)N[C@@H](C(=O)N1CCC[C@H]1c1ncc(-c2cc(F)c(N3CCC(c4cnc([C@@H]5CCCCN5C(=O)[C@H](NC(=O)OC(C)(C)C)c5ccccc5)[nH]4)CC3)c(F)c2)[nH]1)c1ccccc1` [compound 483] gave an EC50 [1] of less than 1 nM.

In the case of `COC(=O)N[C@@H](C(=O)N1CCC[C@H]1c1ncc(-c2cc(F)c(N3CCC(c4cnc([C@@H]5CCCN5C(=O)[C@H](NC(=O)C5CC5)c5ccccc5)[nH]4)CC3)c(F)c2)[nH]1)c1ccccc1` [compound 461], the EC50 [1] is reported as less than 1 nM.

`CNC(=O)N[C@@H](C(=O)N1CCC[C@H]1c1ncc(-c2ccc(C34CCC(c5cnc([C@@H]6CCCN6C(=O)[C@@H](NC(=O)OC)C(C)C)[nH]5)(CC3)CC4)cc2)[nH]1)c1ccccc1` [compound 2102] showed an EC50 [3] of less than 1 nM.

With `COC(=O)N[C@@H](C(=O)N1CCOC[C@H]1c1ncc(C2CCN(c3c(F)cc(-c4cnc([C@@H]5CCCN5C(=O)[C@H](NC(=O)OC(C)(C)C)c5ccccc5)[nH]4)cc3F)CC2)[nH]1)c1ccccc1` [compound 497] the EC50 [1] was less than 1 nM.

Work on `COC(=O)N[C@@H](C(=O)N1CCOC[C@H]1c1ncc(-c2cc(F)c(N3CCC(c4cnc([C@@H]5CCCN5C(=O)[C@H](NC(=O)OC)c5ccccc5)[nH]4)CC3)c(F)c2)[nH]1)c1ccccc1` [compound 507] yielded an EC50 [1] of less than 1 nM.

In the case of `COC(=O)N[C@@H](C(=O)N1CCC[C@H]1c1ncc(-c2ccc(C34CCC(c5cnc([C@@H]6CCCN6C(=O)[C@H](NC(=O)OC)c6ccccc6)[nH]5)(CC3)CC4)cc2)[nH]1)c1ccccc1` [compound 606], the EC50 [3] is reported as less than 1 nM.

Molecule `CC(C)(C)OC(=O)N[C@@H](C(=O)N1CCC[C@H]1CNC(=O)C12CCC(c3ccc(-c4cnc([C@@H]5CCCN5C(=O)[C@H](NC(=O)OC(C)(C)C)c5ccccc5)[nH]4)cc3)(CC1)CC2)c1ccccc1` [compound 600] has an EC50 [3] of 1 to 9.9 nM.

`COC(=O)N[C@@H](C(=O)N1CCC[C@H]1c1ncc(-c2cc(F)c(N3CCC(c4cnc([C@@H]5COCCN5C(=O)[C@H](NC(=O)C5CC5)c5ccccc5)[nH]4)CC3)c(F)c2)[nH]1)c1ccccc1` [compound 494] gave an EC50 [1] of less than 1 nM.

`COC(=O)N[C@H](C(=O)N(C)[C@@H](C)c1ncc(C2CCN(c3c(F)cc(-c4cnc([C@@H]5CCCN5C(=O)[C@@H](NC(=O)OC)C(C)C)[nH]4)cc3F)CC2)[nH]1)C(C)C` [compound 505] gave an EC50 [1] of less than 1 nM.

In the case of `COC(=O)N[C@@H](CC(C)C)C(=O)N1CCC[C@H]1c1ncc(-c2ccc(C34CCC(c5cnc([C@@H]6CCCN6C(=O)[C@@H](NC(=O)OC)C(C)C)[nH]5)(CC3)CC4)cc2)[nH]1` [compound 2072], the EC50 [3] is reported as less than 1 nM.

`COC(=O)N[C@@H](C(=O)N1CCC[C@H]1c1ncc(-c2cc(F)c(N3CCC(c4cnc([C@@H]5CCCN5C(=O)[C@@H](c5ccccc5)N5CCCC5)[nH]4)CC3)c(F)c2)[nH]1)c1ccccc1` [compound 475] gave an EC50 [1] of less than 1 nM.

With `CC(C)(C)OC(=O)N[C@@H](C(=O)N1CCC[C@H]1c1ncc(-c2ccc(C3CCC(c4cnc([C@@H]5CCCN5C(=O)[C@H](NC(=O)OC(C)(C)C)c5ccccc5)[nH]4)CC3)cc2)[nH]1)c1ccccc1` (stereo partly drawn) [compound 367] the EC50 [4] was less than 1 nM.

`COC(=O)N[C@H](C(=O)N1CCC[C@H]1c1nc2ccc(-c3ccc(-c4ccc5nc([C@@H]6CCCN6C(=O)[C@@H](NC(=O)OC)C(C)C)[nH]c5c4)cc3)cc2[nH]1)C(C)C` [compound 551] showed an EC50 [2] of less than 1 nM.
